Laboratory results reported in the supplement of paper PMC10307832.

What was measured:
Test in all cases: relative viability (nuclei count vs DMSO), 5 days (fraction); higher = more cells survive
A-427 = system: A-427
Outline: (§1)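 Medians of duplicate plates are given as relative viability. That measure is the nuclei count in treated wells divided by the count in vehicle wells. Counts were taken on 4× images of lung cancer cell lines in 1536-well plates, 5 days after pin-tool dosing the day after seeding with one drug alone or a fixed anchor-drug dose plus five library-drug doses (not always all listed) in √10 steps.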

COR-L 105 = system: COR-L 105
Outline: as §1

ChaGo-K-1 = system: ChaGo-K-1
Outline: as §1

EKVX = system: EKVX
Outline: as §1

EMC-BAC-2 = system: EMC-BAC-2
Outline: as §1

H3255 = system: H3255
Outline: as §1

HCC-366 = system: HCC-366
Outline: as §1

LK-2 = system: LK-2
Outline: as §1

LOU-NH91 = system: LOU-NH91
Outline: as §1

NCI-H1563 = system: NCI-H1563
Outline: as §1

NCI-H1666 = system: NCI-H1666
Outline: as §1

NCI-H1734 = system: NCI-H1734
Outline: as §1

NCI-H1755 = system: NCI-H1755
Outline: as §1

NCI-H1792 = system: NCI-H1792
Outline: as §1

NCI-H1975 = system: NCI-H1975
Outline: as §1

NCI-H2170 = system: NCI-H2170
Outline: as §1

NCI-H23 = system: NCI-H23
Outline: as §1

NCI-H441 = system: NCI-H441
Outline: as §1

NCI-H520 = system: NCI-H520
Outline: as §1

NCI-H596 = system: NCI-H596
Outline: as §1

PC-3 [JPC-3] = system: PC-3 [JPC-3]
Outline: as §1

SK-MES-1 = system: SK-MES-1
Outline: as §1

SW 900 = system: SW 900
Outline: as §1

SMILES: NC(=O)Nc1cc(-c2cccc(F)c2)sc1C(=O)N[C@H]1CCCNC1 [AZD7762] + COc1cccc2cc(-c3nc([C@H]4CC[C@H](C(=O)O)CC4)n4ncnc(N)c34)[nH]c12 [OSI-027] (partner 0.5 µM)
- relative viability (A-427; first compound 0.01 µM): 0.484
- relative viability (A-427; first compound 0.03162 µM): 0.498
- relative viability (A-427; first compound 0.1 µM): 0.343
- relative viability (A-427; first compound 0.3162 µM): 0.353
- relative viability (A-427; first compound 1 µM): 0.224
- relative viability (COR-L 105; first compound 0.01 µM): 0.636
- relative viability (COR-L 105; first compound 0.03162 µM): 0.821
- relative viability (COR-L 105; first compound 0.1 µM): 0.543
- relative viability (COR-L 105; first compound 0.3162 µM): 0.472
- relative viability (COR-L 105; first compound 1 µM): 0.406
- relative viability (ChaGo-K-1; first compound 0.01 µM): 0.622
- relative viability (ChaGo-K-1; first compound 0.03162 µM): 0.631
- relative viability (ChaGo-K-1; first compound 0.1 µM): 0.56
- relative viability (ChaGo-K-1; first compound 0.3162 µM): 0.643
- relative viability (ChaGo-K-1; first compound 1 µM): 0.554
- relative viability (EKVX; first compound 0.01 µM): 0.726
- relative viability (EKVX; first compound 0.03162 µM): 0.75
- relative viability (EKVX; first compound 0.1 µM): 0.653
- relative viability (EKVX; first compound 0.3162 µM): 0.604
- relative viability (EKVX; first compound 1 µM): 0.628
- relative viability (EMC-BAC-2; first compound 0.01 µM): 0.349
- relative viability (EMC-BAC-2; first compound 0.03162 µM): 0.435
- relative viability (EMC-BAC-2; first compound 0.1 µM): 0.465
- relative viability (EMC-BAC-2; first compound 0.3162 µM): 0.345
- relative viability (EMC-BAC-2; first compound 1 µM): 0.405
- relative viability (H3255; first compound 0.01 µM): 0.572
- relative viability (H3255; first compound 0.03162 µM): 0.506
- relative viability (H3255; first compound 0.1 µM): 0.534
- relative viability (H3255; first compound 0.3162 µM): 0.629
- relative viability (H3255; first compound 1 µM): 0.607
- relative viability (HCC-366; first compound 0.01 µM): 1.02
- relative viability (HCC-366; first compound 0.03162 µM): 0.896
- relative viability (HCC-366; first compound 0.1 µM): 0.985
- relative viability (HCC-366; first compound 0.3162 µM): 0.869
- relative viability (HCC-366; first compound 1 µM): 0.122
- relative viability (LK-2; first compound 0.01 µM): 0.192
- relative viability (LK-2; first compound 0.03162 µM): 0.228
- relative viability (LK-2; first compound 0.1 µM): 0.213
- relative viability (LK-2; first compound 0.3162 µM): 0.186
- relative viability (LK-2; first compound 1 µM): 0.165
- relative viability (LOU-NH91; first compound 0.01 µM): 0.735
- relative viability (LOU-NH91; first compound 0.03162 µM): 0.749
- relative viability (LOU-NH91; first compound 0.1 µM): 0.692
- relative viability (LOU-NH91; first compound 0.3162 µM): 0.638
- relative viability (LOU-NH91; first compound 1 µM): 0.554
- relative viability (NCI-H1563; first compound 0.01 µM): 0.792
- relative viability (NCI-H1563; first compound 0.03162 µM): 0.781
- relative viability (NCI-H1563; first compound 0.1 µM): 0.748
- relative viability (NCI-H1563; first compound 0.3162 µM): 0.804
- relative viability (NCI-H1563; first compound 1 µM): 0.771
- relative viability (NCI-H1666; first compound 0.01 µM): 0.981
- relative viability (NCI-H1666; first compound 0.03162 µM): 0.921
- relative viability (NCI-H1666; first compound 0.1 µM): 1.03
- relative viability (NCI-H1666; first compound 0.3162 µM): 0.858
- relative viability (NCI-H1666; first compound 1 µM): 0.771
- relative viability (NCI-H1734; first compound 0.01 µM): 0.638
- relative viability (NCI-H1734; first compound 0.03162 µM): 0.704
- relative viability (NCI-H1734; first compound 0.1 µM): 0.642
- relative viability (NCI-H1734; first compound 0.3162 µM): 0.374
- relative viability (NCI-H1734; first compound 1 µM): 0.238
- relative viability (NCI-H1755; first compound 0.01 µM): 0.826
- relative viability (NCI-H1755; first compound 0.03162 µM): 0.845
- relative viability (NCI-H1755; first compound 0.1 µM): 0.722
- relative viability (NCI-H1755; first compound 0.3162 µM): 0.712
- relative viability (NCI-H1755; first compound 1 µM): 0.44
- relative viability (NCI-H1792; first compound 0.01 µM): 0.832
- relative viability (NCI-H1792; first compound 0.03162 µM): 0.848
- relative viability (NCI-H1792; first compound 0.1 µM): 0.811
- relative viability (NCI-H1792; first compound 0.3162 µM): 0.867
- relative viability (NCI-H1792; first compound 1 µM): 0.965
- relative viability (NCI-H1975; first compound 0.01 µM): 0.687
- relative viability (NCI-H1975; first compound 0.03162 µM): 0.73
- relative viability (NCI-H1975; first compound 0.1 µM): 0.637
- relative viability (NCI-H1975; first compound 0.3162 µM): 0.615
- relative viability (NCI-H1975; first compound 1 µM): 0.397
- relative viability (NCI-H2170; first compound 0.01 µM): 0.637
- relative viability (NCI-H2170; first compound 0.03162 µM): 0.734
- relative viability (NCI-H2170; first compound 0.1 µM): 0.807
- relative viability (NCI-H2170; first compound 0.3162 µM): 0.8
- relative viability (NCI-H2170; first compound 1 µM): 0.707
- relative viability (NCI-H23; first compound 0.01 µM): 0.556
- relative viability (NCI-H23; first compound 0.03162 µM): 0.567
- relative viability (NCI-H23; first compound 0.1 µM): 0.652
- relative viability (NCI-H23; first compound 0.3162 µM): 0.566
- relative viability (NCI-H23; first compound 1 µM): 0.288
- relative viability (NCI-H441; first compound 0.01 µM): 0.765
- relative viability (NCI-H441; first compound 0.03162 µM): 0.819
- relative viability (NCI-H441; first compound 0.1 µM): 0.944
- relative viability (NCI-H441; first compound 0.3162 µM): 0.799
- relative viability (NCI-H441; first compound 1 µM): 0.59
- relative viability (NCI-H520; first compound 0.01 µM): 0.294
- relative viability (NCI-H520; first compound 0.03162 µM): 0.246
- relative viability (NCI-H520; first compound 0.1 µM): 0.246
- relative viability (NCI-H520; first compound 0.3162 µM): 0.243
- relative viability (NCI-H520; first compound 1 µM): 0.16
- relative viability (NCI-H596; first compound 0.01 µM): 0.702
- relative viability (NCI-H596; first compound 0.03162 µM): 0.711
- relative viability (NCI-H596; first compound 0.1 µM): 0.849
- relative viability (NCI-H596; first compound 0.3162 µM): 0.673
- relative viability (NCI-H596; first compound 1 µM): 0.686
- relative viability (PC-3 [JPC-3]; first compound 0.01 µM): 0.714
- relative viability (PC-3 [JPC-3]; first compound 0.03162 µM): 0.832
- relative viability (PC-3 [JPC-3]; first compound 0.1 µM): 0.858
- relative viability (PC-3 [JPC-3]; first compound 0.3162 µM): 0.751
- relative viability (PC-3 [JPC-3]; first compound 1 µM): 0.684
- relative viability (SK-MES-1; first compound 0.01 µM): 0.672
- relative viability (SK-MES-1; first compound 0.03162 µM): 0.571
- relative viability (SK-MES-1; first compound 0.1 µM): 0.52
- relative viability (SK-MES-1; first compound 0.3162 µM): 0.173
- relative viability (SK-MES-1; first compound 1 µM): 0.17
- relative viability (SW 900; first compound 0.01 µM): 0.609
- relative viability (SW 900; first compound 0.03162 µM): 0.623
- relative viability (SW 900; first compound 0.1 µM): 0.539
- relative viability (SW 900; first compound 0.3162 µM): 0.501
- relative viability (SW 900; first compound 1 µM): 0.263
